How the values were obtained:
BCL-2 = target: T1, BCL-2 (Homo sapiens, UniProt P10415); assay: BCL-2 TR-FRET Assay (primary PPI inhibition); type: binding; conditions: 60 min incubation; read-out: BCL2 (IC50 code, BCL-2 TR-FRET)
T1 construct: purchased BPS Bioscience #50222

[1] = test system: caspase-3 and -7 activities in RS4-11 cells; assay: Cas-3/7 activation (Caspase-Glo 3/7) in RS4-11 cells; type: cell-based; conditions: Homo sapiens, 3.5 h at 37° C. and 30 min at r.t., read-out: Cas-3/7 (EC50 code)
Method in brief: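 RS4-11 cells were exposed to graded compound concentrations for 3.5 h at 37° C/5% CO2, then 30 min at room temperature. Caspase-3/7 activity was measured by luminescence after 30 min with a DEVD luminogenic substrate reagent.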

MOLT-4 cells = assay: Cell viability assay MOLT-4 (CellTiter-Glo); type: cell-based; conditions: Homo sapiens, 72 h; MOLT-4 cells, 3 days, CellTiter-Glo; read-out: MOLT-4 (CC50 code)
Method in brief: (§1)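 Cells were seeded at 2000/well (HEK293, in DMEM, pre-incubated a day) or 4000/well (other lines, in RPMI-1640). Serially diluted compound was added and plates incubated 3 days at 37 °C, with viability read by CellTiter-Glo luminescence.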

BCL-XL = target: T2, BCL-XL (Homo sapiens, UniProt Q07817); assay: BCL-XL TR-FRET Assay (primary PPI inhibition); type: binding; conditions: 60 min incubation; read-out: BCLxL (IC50 code, BCL-XL TR-FRET)
T2 construct: purchased BPS Bioscience #50223
Method in brief: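 TR-FRET readout (ex 340 nm; em 620/665 nm; 60 μs delay, 500 μs integration) after a 60 min incubation. Mix: compound, 10.5 ng BCL-XL, BCL-XL peptide ligand at 1:80, plus anti-His Tb donor and dye acceptor each at 1:100.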

[2] = Cell viability assay HEK293 (CellTiter-Glo); type: cell-based; conditions: human, HEK293 cells, read-out: HEK293 (CC50 code)
Method in brief: as §1

RS4-11 cells = assay: Cell viability assay RS4-11 (CellTiter-Glo); type: cell-based; conditions: Homo sapiens, 72 h; RS4-11 cells, 3 days, CellTiter-Glo; read-out: RS4-11 (CC50 code)
Method in brief: as §1

T1 sequence (P10415 whole entry): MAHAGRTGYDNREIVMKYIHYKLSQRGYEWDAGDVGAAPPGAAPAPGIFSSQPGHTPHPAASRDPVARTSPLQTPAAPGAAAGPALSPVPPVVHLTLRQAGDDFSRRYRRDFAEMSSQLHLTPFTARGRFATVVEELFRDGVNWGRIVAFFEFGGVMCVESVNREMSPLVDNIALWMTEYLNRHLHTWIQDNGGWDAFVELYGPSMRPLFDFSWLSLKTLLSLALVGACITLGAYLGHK
T2 sequence (Q07817 whole entry): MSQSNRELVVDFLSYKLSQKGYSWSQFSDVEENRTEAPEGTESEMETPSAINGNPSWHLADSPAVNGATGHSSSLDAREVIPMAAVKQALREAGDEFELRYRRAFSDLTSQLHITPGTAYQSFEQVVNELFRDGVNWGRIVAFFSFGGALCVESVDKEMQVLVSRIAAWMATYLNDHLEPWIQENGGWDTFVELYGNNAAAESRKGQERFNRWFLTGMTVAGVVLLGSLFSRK

| IC50 (BCL-2) [nM] | EC50 [1] [nM] | IC50 (BCL-XL) [µM] | Structure (SMILES) | CC50 (MOLT-4 cells) [µM] | CC50 at 3 days [2] [µM] | CC50 (RS4-11 cells) [nM] |
| --- | --- | --- | --- | --- | --- | --- |
| 10 to 50 | > 250 | 2 to 4 | O=C(NS(=O)(=O)c1ccc(NCC2CCOCC2)c([N+](=O)[O-])c1)c1ccc(N2CCN(C[C@H]3Cc4ccccc4CN3C(=O)c3ccsc3)CC2)cc1Oc1cnc2[nH]ccc2c1 [Compound 59, N-[3-nitro-4-(tetrahydropyran-4-ylmethylamino)phenyl]sulfonyl-2-(1H-pyrrolo[2,3-b]pyridin-5-yloxy)-4-[4-[[(3R)-2-(thiophene-3-carbonyl)-3,4-dihydro-1H-isoquinolin-3-yl]methyl]piperazin-1-yl]benzamide] | 2 to 10 | > 25 | > 200 |
| > 50 | > 250 | > 4 | O=C(NS(=O)(=O)c1ccc(NCC2CCOCC2)c([N+](=O)[O-])c1)c1ccc(N2CCN(CC3Cc4ccc(Cl)cc4CN3C(=O)C3CC3)CC2)cc1Oc1cnc2[nH]ccc2c1 (stereo not drawn) [Compound 20, 4-[4-[[7-chloro-2-(cyclopropanecarbonyl)-3,4-dihydro-1H-isoquinolin-3-yl]methyl]piperazin-1-yl]-N-[3-nitro-4-(tetrahydropyran-4-ylmethylamino)phenyl]sulfonyl-2-(1H-pyrrolo[2,3-b]pyridin-5-yloxy)benzamide] | 2 to 10 | > 25 | > 200 |
| > 50 | > 250 | ≤ 2 | CN1C(=O)CC[C@H](CN2CCN(c3ccc(C(=O)NS(=O)(=O)c4ccc(NCC5CCOCC5)c([N+](=O)[O-])c4)c(Oc4cnc5[nH]ccc5c4)c3)CC2)[C@H]1c1ccc(Cl)cc1 [Compound 72, 4-[4-[[(2S,3R)-2-(4-chlorophenyl)-1-methyl-6-oxo-3-piperidyl]methyl]piperazin-1-yl]-N-[3-nitro-4-(tetrahydropyran-4-ylmethylamino)phenyl]sulfonyl-2-(1H-pyrrolo[2,3-b]pyridin-5-yloxy)benzamide] | > 10 | > 25 | > 200 |
| 10 to 50 | > 250 | > 4 | O=C(NS(=O)(=O)c1ccc(NCC2CCOCC2)c([N+](=O)[O-])c1)c1ccc(N2CCN(C[C@@H]3Cc4cc(F)ccc4CN3C(=O)C3CC3)CC2)cc1Oc1cnc2[nH]ccc2c1 [Compound 49, 4-[4-[[(3S)-2-(cyclopropanecarbonyl)-6-fluoro-3,4-dihydro-1H-isoquinolin-3-yl]methyl]piperazin-1-yl]-N-[3-nitro-4-(tetrahydropyran-4-ylmethylamino)phenyl]sulfonyl-2-(1H-pyrrolo[2,3-b]pyridin-5-yloxy)benzamide] | 2 to 10 | > 25 | > 200 |
